The target in one series is T1, SRPK1 (Homo sapiens, UniProt Q96SB4).
T1 construct: purchased MRC in Dundee (Premier Screen service)
Briefly: Premier Screen kinase activity screening and IC50 determination (33P ATP filter binding). It is filed as biochemical. An excerpt:
(§1) The kinase activity screening was done at MRC in Dundee. The screen was a so-called “Premier Screen” with 140 kinases. More specific information can be found here: http://www.kinase-screen.mrc.ac.uk/services/premier-screen
(§2) The method is based on a radioactive filter binding assay using 33P ATP (Hastie, et al 2006. Nat Protoc. 2006; 1(2):968-71; Bain, et al 2007. Biochem J. 2007 Dec. 15; 408(3):297-315). This method is sensitive, accurate and provides a direct measure of kinase enzyme activity. A concentration of 10 μM SCO-101 was used.
(§3) In the table below, the data is portrayed as the mean percentage activity of assay duplicates and a standard deviation. These percentage activities were calculated in comparison to DMSO controls. 10 μM SCO-101 reduced the activity of SRPK1 to 6% of the DMSO control.
This experiment was technically carried out as described in example 1, also done by MRC in Dundee. However, in this experiment 10 different concentrations of SCO-101 was applied in order to determine the half maximal inhibitory concentration (IC50). The following concentrations (in nM) were applied: 1.5, 5, 15, 50, 150, 500, 1500, 5000, […] and 50000. This experiment generated a dose response curve (FIG. 1), which confirmed the SCO-101 mediated inhibition of SRPK1. The IC50 value was determined to be 3.0 μM (Table 2).

The target of the next series is AMPK (hum). Briefly: Premier Screen kinase activity screening (33P ATP filter binding). It is filed as biochemical, human. Particulars: 10 μM SCO-101, mean of assay duplicates.
From the text: as §1, §2, §3

A short description of series [1]: Cell viability (MTT assay). The format is cell-based. Particulars: human, HT29 SN38 resistant colon cancer cells, HT29 SN38 resistant, SCO-101 20 μM alone, read-out: cell viability, % of untreated control cells. Here is the method: SN38 was applied to a SN38 sensitive colon cancer cell line (“HT29 parental”) and to a SN38 resistant colon cancer cell line (“HT29 SN38 resistant”).
The Log Concentration (μM) used are—1 for SN38. Data represents cell viability data (MTT assay) and cells were incubated with drugs for 72 hours.
The Log Concentrations (μM) used are—1 for SN38, and 1.5 for both Srpkin340 and Sphinx 31. Data represents cell viability data (MTT assay) and cells were incubated with drugs for 72 hours.
(Tetrazolium assays rely on reduction of a dye to a coloured formazan, in cell work by metabolically active cells.)

Where two headings read alike, the source gives them in different places.

T1 sequence (Q96SB4 whole entry): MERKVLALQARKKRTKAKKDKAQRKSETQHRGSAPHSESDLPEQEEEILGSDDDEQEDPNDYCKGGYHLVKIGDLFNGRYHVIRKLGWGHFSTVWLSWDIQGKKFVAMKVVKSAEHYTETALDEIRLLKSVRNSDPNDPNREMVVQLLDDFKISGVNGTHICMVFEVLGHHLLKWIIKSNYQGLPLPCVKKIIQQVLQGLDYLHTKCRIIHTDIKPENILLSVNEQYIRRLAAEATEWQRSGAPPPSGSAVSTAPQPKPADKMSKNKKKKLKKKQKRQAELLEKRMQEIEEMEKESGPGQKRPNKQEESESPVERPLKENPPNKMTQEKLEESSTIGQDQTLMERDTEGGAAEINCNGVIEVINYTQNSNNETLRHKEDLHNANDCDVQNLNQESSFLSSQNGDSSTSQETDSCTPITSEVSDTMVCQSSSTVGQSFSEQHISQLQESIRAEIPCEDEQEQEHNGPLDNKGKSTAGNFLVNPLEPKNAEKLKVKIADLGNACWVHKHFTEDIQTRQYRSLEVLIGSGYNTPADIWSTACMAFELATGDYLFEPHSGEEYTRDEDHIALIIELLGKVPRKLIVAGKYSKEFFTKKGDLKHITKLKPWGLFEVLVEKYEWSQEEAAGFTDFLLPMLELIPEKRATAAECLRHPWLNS

Take `O=C(Nc1cc(C(F)(F)F)cc(C(F)(F)F)c1)Nc1ccc(Br)cc1-c1nnn[nH]1` [SCO-101]: on SRPK1 (10 μM SCO-101, mean of assay duplicates, read-out: Kinase activity (percentage of DMSO control)), the remaining activity at 10 µM amounted to 6%. The IC50 (in general, the concentration needed to halve the response being measured) at SRPK1 (first determination, 10 concentrations, read-out: IC50) is 2.9 µM; on SRPK1 (mean of two determinations, read-out: mean IC50), 3 µM; on SRPK1 (second determination, 10 concentrations, read-out: IC50) it was 3 µM. Besides, the “Kinase activity (percentage of DMSO control)” value on AMPK (hum) is recorded as 97 percentage of DMSO control. For the same compound, in series [1], the viability – broadly, a per cent measure of how many cells are alive, often set against a control – at 72 h, 20 μM came to 96%.

These data come from patent US20210251963A1, “UREA DERIVATIVES FOR USE IN THE TREATMENT OF SUBJECTS WITH ELEVATED EXPRESSION AND/OR ACTIVITY OF SRPK1” (Scandion Oncology A/S, priority 2018, published 2021).
